Test results as given in patent publication US7906491B2 (Univisitair Medisch Centrum Utrecht, priority 2002, dated 2011).

Assays:
Format in all cases: cell-based
Rap1 [1] = assay: Rap1 activation assay (read-out for Epac) in NIH3T3-A14-Epac1 cells; conditions: 15 min, 8-Br-cAMP 1 mM
Description: (§1) Upper panel: NIH3T3-A14-Epac1 cells were treated for 15 min with 8-Br-cAMP, and cell lysates were analyzed for activation of Rap1 and phosphorylation of CREB. Lower panel: NIH3T3-A14-Epac1 cells were treated in duplicate for 15 min with increasing concentrations of 8-pCPT-2′-O-Me-cAMP. Cells were lysed and equal amounts of cell lysate were incubated with precoupled GST-RalGDSRBD and Rap1 was assayed by immunoblotting with Rap1 antibody.
(§2) Therefore, 8-CPT-2′-O-Me-cAMP was tested in NIH3T3-A14-Epac1 cells for the activation of Epac, using Rap1 as a read-out, and of PKA, using phosphorylation of the common PKA substrate CREB 29 as a read-out.
NIH3T3-A14 cells, stably expressing Epac1, were grown in DMEM with 10% fetal calf serum and 2 μg/ml puromycin. NIH-OVCAR3 (Ovcar3) cells were maintained in RPMI with 10% fetal calf serum. Transient transfection of Ovcar3 cells was performed using the FuGENE 6 transfection reagent (Roche Diagnostics, Mannheim, Germany) according to the manufacturer's procedures, using 6 μg total DNA including a CMV-luciferase plasmid (0.2 μg).
Rap activation assays were performed as described previously (16-18). Briefly, cells were lysed in lysis buffer containing 10% glycerol, 1% Nonidet P-40, 50 mM Tris-Cl pH7.5, 200 mM NaCl, 2mM MgCl2, 1 μM leupeptin, 0.1 μM aprotinin, 5 mM NaF, 1 mM NaVO3. Lysates were clarified by centrifugation and incubated with GST-tagged RalGDS-RBD pre-coupled to glutathione beads to specifically pull down the GTP-bound forms of Rap1. Samples were incubated for 1 hr at 4° C. while tumbling. Beads were washed four times in lysis buffer, and the remaining fluid was removed with an insulin syringe. Proteins were eluted with Laemmli sample buffer and analyzed by sodium dodecyl sulphate (SDS)-polyacrylamide gel electrophoresis and Western blotting using Rap1 antibodies. As a control, Rap1 levels in whole cell lysates were determined.

CREB = CREB phosphorylation (read-out for PKA) in NIH3T3-A14-Epac1 cells; conditions: 15 min, 8-Br-cAMP 1 mM
Description: as §1, §2
Antibodies against phosphorylated CREB (directed against phosphorylated Serl33) were obtained from Cell Signalling (Beverly, Mass., USA), and antibodies against K-Rev/Rap1 and polyclonal anti-HA were obtained from Santa Cruz Biotechnology (Santa Cruz, Calif., USA). The following inhibitors and stimuli were used at concentrations indicated, unless stated otherwise: RGD peptide (100 μM) and H-89 (10 μM) was obtained from Biomol Research Laboratories Inc. (Plymouth Meeting, Pa., USA). 8-Br-cAMP (1 mM) was obtained from BIOLOG Life Science Institute (Bremen, Germany). TPA (12-O-tetradecanoylphorbol-13-acetate) was obtained from Sigma (Steinheim, Germany) and was used at a concentration of 100 ng/ml. […]

Rap1 [2] = assay: Rap1 activation assay in Ovcar3 cells; conditions: H-89 10 μM, FIG. 7C
Description: (§3) A: 8-pCPT-2′-O-Me-cAMP stimulates cell adhesion. Upper panel: quantification of Ovcar3 cells adhering to fibronectin after treatment with increasing concentrations of 8-pCPT-2′-O-Me-cAMP. Lower panel: Ovcar3 cells were treated with increasing concentrations of 8-pCPT-2′-O-Me-cAMP for 15 min, cells were lysed and analyzed for activation of Rap1 (upper blot) and CREB (lower blot). Total Rap1 levels are shown (middle blot). B: 8-pCPT-2′-O-Me-cAMP increases the rate of cell adhesion. Upper panel: quantification of Ovcar3 cells adhering to fibronectin at various time points. Lower panel: cells were treated with 60 μM 8-pCPT-2′-O-Me-cAMP for the indicated times. Cell lysates were analyzed for activation of Rap1 (upper blot) and CREB (lower blot). Total levels of Rap1 in cell lysates are shown (middle blot). C: Ovcar3 cells were either pre-incubated at 37° C. for 30 min with the PKA inhibitor H-89 (10 μM) 30 min prior to seeding onto the wells (‘Short’) or H-89 was added 30 min prior to trypsinization and during the recovery period (‘Long’) and seeded onto wells in the absence or presence of 8-pCPT-2′-O-Me-cAMP (100 μM). Cells were allowed to adhere for 1 h. D, cAMP-induced adhesion to fibronectin is blocked by inhibitors of Rap1. Left panel: Ovcar3 cells were transiently transfected with either mock DNA, increasing concentrations of HA-Rap1GAP II (0.5, 1, 2 or 6 μg, respectively), HA-Rap1GAPI (6 μg) or HA-RBD of RalGDS (6 μg), respectively. Cells were treated with 8-Br-cAMP or 8-pCPT-2′-O-Me-cAMP and adhesion to fibronectin was determined. Right upper panel: luciferase counts of total input cells per well in the above experiment are shown. Right lower panel: expression of HA-Rap1GAPs in the above experiment is shown.
Rap activation assays were performed as described previously (16-18). […] Proteins were eluted with Laemmli sample buffer and analyzed by sodium dodecyl sulphate (SDS)-polyacrylamide gel electrophoresis and Western blotting using Rap1 antibodies. As a control, Rap1 levels in whole cell lysates were determined.

Ovcar3 cells = assay: Adhesion assay of Ovcar3 cells to fibronectin; conditions: H-89 10 μM, 8-pCPT-2′-O-Me-cAMP 100 μM, FIG. 7C
Description: as §3, with “Right upper panel: luciferase counts of total input cells per well in the above experiment are shown. Right lower panel: expression of HA-Rap1GAPs in the above experiment is shown.” left out
In functional assays, 8-pCPT-2′-O-Me-cAMP appeared to induce integrin-mediated cell adhesion through Epac and Rap1. […] The cells were seeded onto fibronectin-coated plates in the presence or absence of 8-pCPT-2′-O-Me-cAMP and the amount of cells that adhered after a certain period of time was quantified. […]
24-well plates were coated overnight with 2 μg/ml fibronectin (Sigma, St. Louis, Mo., USA) in sodium bicarbonate buffer (Sigma, St. Louis, Mo., USA). […] Cells were centrifuged, counted and resuspended at 3×10^5 cells/ml in serum-free RPMI with 0.5% BSA. […]

Compound | activation of Rap1 (Rap1 [1]) | phosphorylation of CREB (CREB) | effect on 8-pCPT-2′-O-Me-cAMP activation of Rap1 (Rap1 [2]) | effect on 8-pCPT-2′-O-Me-cAMP induction of adhesion (Ovcar3 cells)
Nc1ncnc2c1nc(Br)n2[C@@H]1O[C@@H]2COP(=O)(O)O[C@H]2[C@H]1O [Compound 8-Br-cAMP, 8-Br-cAMP, reference compound] | induced both the activation of Rap1 | induced both the activation of Rap1 and the phosphorylation of CREB | – | –
O=S(=O)(NCCNC/C=C/c1ccc(Br)cc1)c1cccc2cnccc12 [Compound H-89, H-89, reference compound] | – | – | insensitive | insensitive
